Source: US10131652B2, “Pyrimidinyloxy benzene derivatives as herbicides” (E. I. DU PONT DE NEMOURS AND COMPANY, priority 2014, dated 2018)
Read-outs that look alike come from different tables or passages of the source.

What was measured:
Format in all cases: in vivo
[1] = system: large (Lg) crabgrass (Digitaria sanguinalis); assay: Test B pre-/postemergence plant response; settings: Digitaria sanguinalis, 240 h, 1000 g ai/ha, 0 to 100 scale (0 no effect, 100 complete control), read-out: Plant response rating, Crabgrass, Large
Outline: (§1)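 Greenhouse pots, loam/sand soil; compound formulated with surfactant in non-phytotoxic solvent. Preemergence soil spray and postemergence spray at 1–2 leaf stage run simultaneously. Visual injury, 0–100, about 10 days post-treatment.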

[2] = system: morningglory (Ipomoea spp.); assay: Test B pre-/postemergence plant response; settings: Ipomoea, 240 h, 1000 g ai/ha, 0 to 100 scale (0 no effect, 100 complete control), read-out: Plant response rating, Morningglory
Outline: as §1

[3] = system: velvetleaf (Abutilon theophrasti); assay: Test B pre-/postemergence plant response; settings: Abutilon theophrasti, 240 h, 1000 g ai/ha, 0 to 100 scale (0 no effect, 100 complete control), read-out: Plant response rating, Velvetleaf
Outline: as §1

[4] = system: chickweed (common chickweed, Stellaria media); assay: Test D postemergence plant response
Outline: (§2)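 Postemergence spray on plants 2–18 cm tall (1- to 4-leaf stage), grown in pots of peat/vermiculite medium. Plants were kept in a greenhouse for 13–15 days, then visually rated against untreated controls on a 0 (no effect) to 100 (complete control) scale.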

kochia (Kochia scoparia) = assay: Test D postemergence plant response
Outline: as §2

wild oat (Avena fatua) = assay: Test D postemergence plant response
Outline: as §2

[5] = system: waterhemp_RES1 (ALS & Triazine resistant common waterhemp, Amaranthus rudis); assay: Test F postemergence plant response; settings: scale 0 to 100
Experimental: (§3) At the same time, plants from these crop and weed species and also waterhemp_RES1, (ALS & Triazine resistant common waterhemp, Amaranthus rudis), and waterhemp_RES2, (ALS & HPPD resistant common waterhemp, Amaranthus rudis) were treated with postemergence applications of test chemicals formulated in the same manner. Plants ranged in height from 2 to 18 cm for postemergence treatments (1- to 4-leaf stage).
(§4) Treated plants and controls were maintained in a greenhouse for 14 to 21 days, after which time all species were compared to controls and visually evaluated. Plant response ratings, summarized in Table F, are based on a scale of 0 to 100 where 0 is no effect and 100 is complete control. A dash (-) response means no test result.

[6] = system: waterhemp_RES2 (ALS & HPPD resistant common waterhemp, Amaranthus rudis); assay: Test F postemergence plant response; settings: scale 0 to 100
Experimental: as §3, §4

## FC(F)c1cc(-c2ccccc2Oc2ncc(Cl)cn2)no1 [Compound 35, 5-chloro-2-[2-[5-(difluoromethyl)-3-isoxazolyl]phenoxy]pyrimidine]
[1]; post-emergence, Postemergence
  pest or weed control at 1000 g/ha: 100%
[1]; pre-emergence, Preemergence
  pest or weed control at 1000 g/ha: 100%
[2]; post-emergence, Postemergence
  pest or weed control at 1000 g/ha: 100%
[2]; pre-emergence, Preemergence
  pest or weed control at 1000 g/ha: 90%
[3]; post-emergence, Postemergence
  pest or weed control at 1000 g/ha: 100%
[3]; pre-emergence, Preemergence
  pest or weed control at 1000 g/ha: 100%
[4]; 8 g ai/ha
  Plant response rating (scale 0 to 100), Chickweed: 50
[4]; Stellaria media, post-emergence, 16 g ai/ha, scale 0 to 100 (0 no effect, 100 complete control), read-out: Chickweed plant response rating
  pest or weed control at 16 g/ha: 85%
[4]; Stellaria media, post-emergence, 31 g ai/ha, scale 0 to 100 (0 no effect, 100 complete control), read-out: Chickweed plant response rating
  pest or weed control at 31 g/ha: 85%
[4]; Stellaria media, post-emergence, 62 g ai/ha, scale 0 to 100, 0 no effect, 100 complete control, read-out: Plant response rating, Chickweed
  pest or weed control at 62 g/ha: 100%
Kochia (Kochia scoparia); 8 g ai/ha
  Plant response rating (scale 0 to 100), Kochia: 95
Kochia (Kochia scoparia); Bassia scoparia, post-emergence, 16 g ai/ha, scale 0 to 100 (0 no effect, 100 complete control), read-out: Kochia plant response rating
  pest or weed control at 16 g/ha: 100%
Kochia (Kochia scoparia); Bassia scoparia, post-emergence, 31 g ai/ha, scale 0 to 100 (0 no effect, 100 complete control), read-out: Kochia plant response rating
  pest or weed control at 31 g/ha: 100%
Kochia (Kochia scoparia); Bassia scoparia, post-emergence, 62 g ai/ha, scale 0 to 100, 0 no effect, 100 complete control, read-out: Plant response rating, Kochia
  pest or weed control at 62 g/ha: 100%
Wild oat (Avena fatua); 8 g ai/ha
  Plant response rating (scale 0 to 100), Oat, Wild: 5
Wild oat (Avena fatua); Avena fatua, post-emergence, 16 g ai/ha, scale 0 to 100 (0 no effect, 100 complete control), read-out: Oat, Wild plant response rating
  pest or weed control at 16 g/ha: 10%
Wild oat (Avena fatua); Avena fatua, post-emergence, 31 g ai/ha, scale 0 to 100 (0 no effect, 100 complete control), read-out: Oat, Wild plant response rating
  pest or weed control at 31 g/ha: 40%
Wild oat (Avena fatua); Avena fatua, post-emergence, 62 g ai/ha, scale 0 to 100, 0 no effect, 100 complete control, read-out: Plant response rating, Oat, Wild
  pest or weed control at 62 g/ha: 45%
[5]; 8 g ai/ha Postemergence
  Plant response rating, Waterhemp_RES1: 90
[5]; 16 g ai/ha Postemergence
  Plant response rating, Waterhemp_RES1: 80
[5]; 31 g ai/ha Postemergence
  Plant response rating, Waterhemp_RES1: 90
[5]; 62 g ai/ha Postemergence
  Plant response rating, Waterhemp_RES1: 100
[5]; 125 g ai/ha Postemergence
  Plant response rating, Waterhemp_RES1: 100
[6]; 8 g ai/ha Postemergence
  Plant response rating, Waterhemp_RES2: 90
[6]; 16 g ai/ha Postemergence
  Plant response rating, Waterhemp_RES2: 90
[6]; 31 g ai/ha Postemergence
  Plant response rating, Waterhemp_RES2: 95
[6]; 62 g ai/ha Postemergence
  Plant response rating, Waterhemp_RES2: 100
[6]; 125 g ai/ha Postemergence
  Plant response rating, Waterhemp_RES2: 100
